The values below come from EP1581471B9, “CYCLOPENTENONE DERIVATIVES FOR CANCER THERAPY” (Dabur Research Foundation, priority 2002, dated 2004).

The subject of one test is 293. Kind of test: three day MTT cytotoxicity assay. Conditions: 293 (kidney), 72 hours. Type of test: cell-based, human. As to the method: (§1) A number of the cyclopentenone derivatives were tested for cytotoxicity against 9 human tumor cell lines. Briefly, a three day MTT cytotoxicity assay was performed, which is based on the principle of uptake of MTT (3-(4,5-dimethylthiazol-2-yl)-2,5-diphenyl tetrazolium bromide), a tetrazolium salt, by the metabolically active cells where it is metabolized by active mitochondria into a blue colored formazan product that is read spectrophotometrically. MTT was dissolved in phosphate buffered saline with a pH of 7.4 to obtain an MTT concentration of 5mg/ml; the resulting mixture was filtered through a 0.22 micron filter to sterilize and remove a small amount of insoluble residue. For each type of tumor cell, 10000 to 15000 cells were seeded in a 96-well culture plate and incubated with the individual cyclopentenone derivatives in a CO2 incubator for a total of 72 hours. Control cells not treated with the cyclopentenone derivatives were similarly incubated. The assay was terminated by adding 100 ug (20 ul) of MTT to each well, then incubating for additional one hour, and finally adding 50 ul of 10% SDS-0.01N HCl to each well to lyse the cells and dissolve formazan. After incubating for one hour, the plate was read spectrophotometrically at 540 nm and the percentage of cytotoxicity calculated using the following formula: Cytotoxicity percentage = 100 × [1-(X/R1)], [formula] where X = (absorbance of treated sample at 540 nm) - (absorbance of blank at 540 nm) R1 = absorbance of control sample at 540 nm.
(§2) The ED50 Values of the cytotoxicity defined as the concentration at which 50 % of the cells are killed in vitro was calculated for each cell line treated with each of the cyclopentenone derivatives.
(§3) The cell lines are PTC (all colon), MOLT-4 (leukemia), SW620 […], DU145 (prostate), KB (oral squamous cell), L132 (lung), MIAPaCa2 (Pancreas), Hep2, (larynx), PA-1 (ovary), HuTu80 (duodenum), ECV 304 (endothelial), and 293 (kidney).
A general note: Tetrazolium assays rely on reduction of a dye to a coloured formazan, in cell work by metabolically active cells.

The test system of another test is DU145. The experiment in a line: three day MTT cytotoxicity assay. In kind it is cell-based, human. The note with it: DU145 (prostate), 72 hours. As to the method:
as §1, §2, §3

Another test has as its system ECV 304. The experiment in a line: three day MTT cytotoxicity assay. Conditions: ECV 304 (endothelial), 72 hours. In kind it is cell-based, human. How it is done: as §1, §2, §3
Another test relates to Hep2. Kind of test: three day MTT cytotoxicity assay. In kind it is cell-based, human. Conditions: Hep2 (larynx), 72 hours. How it is done:
as §1, §2, §3

The next test concerns HuTu80. Kind of test: three day MTT cytotoxicity assay. In kind it is cell-based, human. Conditions: HuTu80 (duodenum), 72 hours. How it is done: as §1, §2, §3
A further test deals with KB. The experiment in a line: three day MTT cytotoxicity assay. Type of test: cell-based, human. The note with it: KB (oral squamous cell), 72 hours. How it is done: as §1, §2, §3
For another test, the system named is L132. The experiment in a line: three day MTT cytotoxicity assay. In kind it is cell-based, human. Conditions: L132 (lung), 72 hours. How it is done:
as §1, §2, §3

The next test deals with MIAPaCa2. Kind of test: three day MTT cytotoxicity assay. The note with it: MIAPaCa2 (Pancreas), 72 hours. Type of test: cell-based, human. As to the method: as §1, §2, §3
Another test concerns MOLT-4. The experiment in a line: three day MTT cytotoxicity assay. Type of test: cell-based, human. Conditions: MOLT-4 (leukemia), 72 hours. As to the method:
as §1, §2, §3

A further test has as its system PA-1. Kind of test: three day MTT cytotoxicity assay. Type of test: cell-based, human. Conditions: PA-1 (ovary), 72 hours. As to the method: as §1, §2, §3
The subject of another test is PTC. The experiment in a line: three day MTT cytotoxicity assay. Conditions: PTC (colon), 72 hours. In kind it is cell-based, human. As to the method: as §1, §2, §3
The next test relates to SW620. Kind of test: three day MTT cytotoxicity assay. Type of test: cell-based, human. Conditions: 72 hours. As to the method:
as §1, §2, §3

The test system of a further test is tubulin. The experiment in a line: tubulin polymerization in vitro (absorbance at 340 nm). Type of test: biochemical. Conditions: tubulin 1mg/ml, 37°C, pH 6.9; read-out: IC50 values (uM) for inhibition of Tubulin Polymerization. As to the method: The cyclopentenone derivatives were checked for their effects on tubulin polymerization in vitro. Briefly, the tubulin assembly reaction was performed at 37°C in buffer containing 80 mM PIPES, 1mM EGTA, 1.0 mM GTP and 1mM MgCl2 (pH 6.9) at a tubulin concentration of 1mg/ml in the presence or absence of the cyclopentenone derivatives. The final concentration of the cyclopentenone derivatives in the reaction mixture varied from 1-5uM. The derivatives were dissolved in 0.1% DMSO. The control experiments were carried out with 0.1% DMSO. The tubulin polymerization was followed by measurement of the absorbance of the solution at 340 nm every 30 seconds. […] Thus the cyclopentenone derivatives mediated their observed anticancer activities by tubulin depolymerization.

Another test deals with Caspase-3. The experiment in a line: Caspase-3 induction in KB cells (colorimetric substrate DEVD-pNA). Type of test: cell-based, Human. Conditions: 5ug/ml. As to the method:
Human squamous cell carcinoma (KB) were plated in a 25 cm^2 flask. When cultures achieved confluence, the cyclopentenone derivative of structure 20 was added to the cells. The final concentration of derivative of the structure 20 in the flask was 5ug/ml. The untreated wells served as controls. The cells were incubated with the drug for 2 different time points of 6 and 16 hours at 37°C. The cells were collected by centrifugation at 2000 r.p.m. for 10 minutes. The supernatant was gently removed and discarded while Lysis Buffer was added to the cell pellet (25ul of lysis buffer per […]). The cell lysate was incubated on ice for 10 minutes and centrifuged at 10,000-x g for 1 minute. The supernatant was transferred to a new tube and kept on ice. 50ul of the cell lysate was added in a 96 well plate. To this was added 2x Reaction Buffer. Prior to using reaction buffer, 10ul of fresh DTT stock per 1 ml of 2x Reaction Buffer was added. To each well 5ul of Caspase-3 colorimetric substrate (DEVD-pNA) was added. The plate was incubated for 1-2 hours at […]. and read at 405nm.
The level of caspase enzymatic activity in the cell lysate is directly proportional to the absorbance at 405nm. […]

Another test deals with VEGF. Kind of test: VEGF levels in ECV304 endothelial cells (ELISA). Conditions: 5ug/ml, 4 hours. In kind it is cell-based, Human. As to the method:
Human endothelial cells (ECV304) were plated at the density of 8-10 x10^5 cells per 2 ml in a six well plate. After an overnight incubation of cells at 37°C, cyclopentenone derivatives at a concentration of 5ug/ml was added to the wells. The untreated wells served as controls. The plates were incubated for 4 hours at 37°C. The medium was collected from all the wells (control and treated) and spun down at 2000 r.p.m to remove the cellular material. The supernatant was collected and used for ELISA (Quantikine human VEGF, R&D Systems). The assay employs the quantitative sandwich enzyme immunoassay technique. A monoclonal antibody specific for VEGF has been pre-coated onto a microplate. Standards and samples were pipetted into the wells and VEGF present was bound by the immobilized antibody. After washing away the unbound substances, an enzyme-linked polyclonal antibody specific for VEGF was added to the wells. Following a wash to remove any unbound antibody-enzyme reagent, a substrate solution was added to the wells and color developed in proportion to the amount of VEGF bound in the initial step. The optical density of each well was determined within 30 minutes using a microplate reader set to 450nm and reference wavelength at 540nm. The VEGF levels were inhibited by the addition of cyclopentenone derivatives in vitro.
Background: ELISA stands for enzyme-linked immunosorbent assay.

Another test deals with PTC tumor xenografts. Kind of test: In vivo anti-tumor activity on PTC tumor xenografts. More on the design: species or system Balb/c athymic mice. The note with it: intravenously 0.5 mg/100 µL once a day for 14 days, day 23, compared to controls. As to the method: PTC tumor xenografts were grown in Balb/c athymic mice by subcutaneous inoculation of a single cell suspension of PTC cells (15 X 10^6 cells/100 µL). The tumor bearing animals were divided into 2 groups of three animals each including one group comprising untreated control animals. Treatment with compound of formula no. 49 was initiated when the average tumor volumes, as measured using a vernier caliper, were […]. Compound of formula no. 49 was administered intravenously to the assigned group of tumor bearing animals at a dose of 0.5 mg/100 µL once a day and the treatment was continued for a period of 14 days.
The antitumor activity of the compound was monitored by measuring tumor volumes every fourth day using the formula W*W*L*0.4 (W = smaller diameter, L = larger diameter). The percentage inhibition of tumor growth was calculated using the formula (1- tumor volume-treated / tumor volume-control) * 100. […] Compound of formula no. […] The percentage inhibition of tumor growth caused compound of formula no. 49 as compared to controls on day 23 was 45.8%.

≈ marks a conversion by molar mass, not a printed value.

One may read the IC50 as the concentration that gives 50% inhibition. For the compound `COc1ccc(C2=C(c3cc(OC)c(OC)c(OC)c3)C(=O)CC2O)cc1O` (stereo not drawn) [Compound 39], the “ED50 (ug/ml) 293” value in the test on 293 was above 100 µg/mL. Moreover, in the test with DU145, the “ED50 (ug/ml) DU145” value turned out to be 8 ± 1.5 µg/mL (≈ 20.7 µM). Moreover, the “ED50 (ug/ml) ECV 304” value with ECV 304 was above 100 µg/mL. Besides, in the test with Hep2, the “ED50 (ug/ml) Hep2” value is below 1 µg/mL. Further, the “ED50 (ug/ml) HuTu80” value in the test with HuTu80 was 1.5 ± 0.1 µg/mL (≈ 3.88 µM). The “ED50 (ug/ml) KB” value in the test with KB is below 1 µg/mL. Moreover, the “ED50 (ug/ml) L132” value in the test on L132 is below 1 µg/mL. Further, the “ED50 (ug/ml) MiaPaca” value with MIAPaCa2 is above 100 µg/mL. The “ED50 (ug/ml) MOLT4” value with MOLT-4 was 62.5 ± 5.0 µg/mL (≈ 162 µM). The “ED50 (ug/ml) PA1” value in the test with PA-1 is below 1 µg/mL. Further, the “ED50 (ug/ml) PTC” value in the test on PTC worked out at 78 ± 4.0 µg/mL (≈ 202 µM). In the test with SW620 (SW620 (colon)), the “ED50 (ug/ml) SW620” value is below 1 µg/mL. Further, the IC50 in the test on tubulin was found to be 1.4 ± 0.6 µM. Further, in the test on Caspase-3, the “Percent Induction of Caspase-3 6 hours” value is 12.8 ± 0.2% and the “Percent Induction of Caspase-3 16 hours” value was 17.0 ± 1.5%. Also, the “Percent Reduction in VEGF” value in the test with VEGF is on record as 21.9 ± 1.5%.

On to `COc1ccc(C2=C(c3cc(OC)c(OC)c(OC)c3)C(=NO)C(O)C2)cc1` (stereo not drawn) [Compound 49], for which, in the test on DU145, the “ED50 (ug/ml) DU145” value is above 100 µg/mL. For the same compound, the “ED50 (ug/ml) ECV 304” value with ECV 304 was above 100 µg/mL. In addition, in the test on Hep2, the “ED50 (ug/ml) Hep2” value is below 1.0 µg/mL. In addition, the “ED50 (ug/ml) KB” value in the test on KB is below 1.0 µg/mL. Moreover, the “ED50 (ug/ml) L132” value in the test on L132 was below 1.0 µg/mL. The “ED50 (ug/ml) MiaPaca” value in the test with MIAPaCa2 was determined as 24 ± 3.5 µg/mL (≈ 62.3 µM). In addition, in the test on MOLT-4, the “ED50 (ug/ml) MOLT4” value was below 1.0 µg/mL. Further, in the test with PA-1, the “ED50 (ug/ml) PA1” value is below 1.0 µg/mL. In addition, the “ED50 (ug/ml) PTC” value with PTC was below 1.0 µg/mL. Further, the “ED50 (ug/ml) SW620” value with SW620 (SW620 (ovary)) is below 1.0 µg/mL. Besides, the IC50 in the test on tubulin is 2.3 ± 0.5 µM. Besides, in the test on Caspase-3, the “Percent Induction of Caspase-3 6 hours” value was determined as 26.7 ± 2.8% and the “Percent Induction of Caspase-3 16 hours” value is 31.9 ± 3.2%. Besides, the “Percent Reduction in VEGF” value in the test with VEGF is 38.6 ± 1.9%. For the same compound, the “percentage inhibition of tumor growth” value with PTC tumor xenografts is given as 45.8%.

With `COc1ccc(C2=C(c3cc(OC)c(OC)c(OC)c3)/C(=N\O)C(O)C2)cc1F` (stereo not drawn) [Compound 66], the “ED50 (ug/ml) 293” value in the test on 293 was above 100 µg/mL. In the test with DU145, the “ED50 (ug/ml) DU145” value came to 10 ± 5.1 µg/mL (≈ 24.8 µM). In addition, the “ED50 (ug/ml) ECV 304” value in the test with ECV 304 stood at 43 ± 4.5 µg/mL (≈ 107 µM). Besides, in the test with Hep2, the “ED50 (ug/ml) Hep2” value was below 1 µg/mL. Also, the “ED50 (ug/ml) HuTu80” value in the test on HuTu80 was 9 ± 3.1 µg/mL (≈ 22.3 µM). The “ED50 (ug/ml) KB” value in the test with KB was below 1 µg/mL. Besides, in the test on L132, the “ED50 (ug/ml) L132” value was below 1 µg/mL. The “ED50 (ug/ml) MiaPaca” value in the test on MIAPaCa2 turned out to be 94 ± 10.0 µg/mL (≈ 233 µM). Further, the “ED50 (ug/ml) PTC” value with PTC worked out at 27 ± 3.5 µg/mL (≈ 66.9 µM). Further, in the test with SW620 (SW620 (colon)), the “ED50 (ug/ml) SW620” value is below 1 µg/mL. The IC50 in the test on tubulin was 2 ± 0.6 µM. In addition, in the test with Caspase-3, the “Percent Induction of Caspase-3 6 hours” value is reported as 17.0 ± 1.0% and the “Percent Induction of Caspase-3 16 hours” value is given as 22.1 ± 0.6%. For the same compound, in the test with VEGF, the “Percent Reduction in VEGF” value amounted to 12.9 ± 2.9%.
